From ChEMBL document CHEMBL1201862, “PubChem BioAssay data set” (2004)
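Compound exposure: 48 hours, 5 concentrations, 96-well plates. The concentration for 50% growth inhibition is given as GI50.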 The source made the active and inactive calls. Rule as the data show it: active = GI50 up to about 1.1 µM and inactive = higher.

Legend:
Test in all cases: NCI tumour cell line growth inhibition, 48 h
[1] = test system: DMS-114
[2] = test system: DMS-273
[3] = test system: HOP-18
[4] = test system: KM-20L2
[5] = test system: LXFL 529
[6] = test system: M19-MEL
[7] = test system: RXF 631
[8] = test system: SNB-78
[9] = test system: XF498

Measured: GI50

CC(=O)N1C/C(=C\c2ccc(N(C)C)cc2)C(=O)/C(=C/c2ccc(N(C)C)cc2)C1
inactive: [1] 30.2 µM | [2] 49.8 µM | [3] 71.9 µM | [4] 28.7 µM | [5] 64 µM | [6] 33.6 µM | [7] 55.2 µM | [8] 85.9 µM | [9] > 100 µM

Brc1ccc(/C=N/C23CC4CC(CC(C4)C2)C3)cc1
inactive: [1] > 100 µM | [2] > 100 µM | [3] > 100 µM | [4] > 100 µM | [5] > 100 µM | [6] > 100 µM | [7] > 100 µM | [8] > 100 µM | [9] > 100 µM
